Experiments:
[1] = molecular target: Haem-free sGC (recombinant soluble guanylate cyclase) (Rattus norvegicus (Rat), UniProt P20595); assay: Stimulation of recombinant soluble guanylate cyclase (sGC) in vitro, haem-free enzyme; assay type: biochemical; conditions: haem-free (0.5% Tween 20), n = 5
Method: Investigations on the stimulation of recombinant soluble guanylate cyclase (sGC) by the compounds according to the invention with and without sodium nitroprusside, and with and without the haem-dependent sGC inhibitor 1H-1,2,4-oxadiazolo[4,3a]quinoxalin-1-one (ODQ), are carried out by the method described in detail in the following reference: M. Hoenicka, E. M. Becker, H. Apeler, T. Sirichoke, H. Schroeder, R. Gerzer and J.-P. Stasch, “Purified soluble guanylyl cyclase expressed in a baculovirus/Sf9 system: Stimulation by YC-1, nitric oxide, and carbon oxide”, J. Mol. Med. 77 (1999), 14-23. The haem-free guanylate cyclase is obtained by adding Tween 20 to the sample buffer (0.5% in the final concentration).
(§1) The activation of sGC by a test substance is reported as x-fold stimulation of the basal activity.

[2] = molecular target: Haem-containing sGC (recombinant soluble guanylate cyclase) (Rattus norvegicus (Rat), UniProt P20595); assay: Stimulation of recombinant soluble guanylate cyclase (sGC) in vitro, haem-containing enzyme; assay type: biochemical; conditions: for Stimulation (x-fold) of recombinant sGC, haem-containing sGC, basal: n = 5
Description: Hoenicka, E. M. Becker, H. Apeler, T. Sirichoke, H. Schroeder, R. Gerzer and J.-P. Stasch, “Purified soluble guanylyl cyclase expressed in a baculovirus/Sf9 system: Stimulation by YC-1, nitric oxide, and carbon oxide”, J. Mol. Med. 77 (1999), 14-23. The haem-free guanylate cyclase is obtained by adding Tween 20 to the sample buffer (0.5% in the final concentration).
as §1

[3] = molecular target: sGC in the CHO reporter cell (Rattus norvegicus (Rat), UniProt P20595); assay: Action at a recombinant guanylate cyclase reporter cell line; assay type: cell-based; conditions: CHO reporter cell in vitro
Method: The cellular action of the compounds according to the invention is determined at a recombinant guanylate cyclase reporter cell line, as described in F. Wunder et al., Anal. Biochem. 339, 104-112 (2005).

[4] = molecular target: soluble guanylate cyclase (sGC) (Rattus norvegicus (Rat), UniProt P20595); assay: Stimulation of sGC enzyme activity (PPi detection, luciferase); assay type: biochemical; conditions: sGC enzyme in vitro
Method: Soluble guanylate cyclase (sGC) converts on stimulation GTP into cGMP and pyrophosphate (PPi). PPi is detected with the aid of the assay described below. The signal produced in the assay increases as the reaction progresses and serves as a measure of the sGC enzyme activity under the given stimulation.
To carry out the assay, 29 μl of enzyme solution [0-10 nM soluble guanylate cyclase (prepared according to Honicka et al., J. Mol. Med. 77, 14-23 (1999)) in 50 mM TEA, 2 mM MgCl2, 0.1% BSA (fraction V), 0.005% Brij®, pH 7.5] are initially introduced into a microplate, and 1 μl of the substance to be tested (as a serially diluted solution in DMSO) is added. The mixture is incubated at room temperature for 10 min. […] The enzyme reaction is started by adding 20 μl of substrate solution [1.25 mM guanosine 5′-triphosphate (Sigma) in 50 mM TEA, 2 mM MgCl2, 0.1% BSA (fraction V), 0.005% Brij®, pH 7.5] and measured continuously in a luminometer. The extent of the stimulation by the substance to be tested can be determined relative to the signal of the unstimulated reaction. […]

Sequence of Haem-containing sGC (recombinant soluble guanylate cyclase) (P20595 whole entry): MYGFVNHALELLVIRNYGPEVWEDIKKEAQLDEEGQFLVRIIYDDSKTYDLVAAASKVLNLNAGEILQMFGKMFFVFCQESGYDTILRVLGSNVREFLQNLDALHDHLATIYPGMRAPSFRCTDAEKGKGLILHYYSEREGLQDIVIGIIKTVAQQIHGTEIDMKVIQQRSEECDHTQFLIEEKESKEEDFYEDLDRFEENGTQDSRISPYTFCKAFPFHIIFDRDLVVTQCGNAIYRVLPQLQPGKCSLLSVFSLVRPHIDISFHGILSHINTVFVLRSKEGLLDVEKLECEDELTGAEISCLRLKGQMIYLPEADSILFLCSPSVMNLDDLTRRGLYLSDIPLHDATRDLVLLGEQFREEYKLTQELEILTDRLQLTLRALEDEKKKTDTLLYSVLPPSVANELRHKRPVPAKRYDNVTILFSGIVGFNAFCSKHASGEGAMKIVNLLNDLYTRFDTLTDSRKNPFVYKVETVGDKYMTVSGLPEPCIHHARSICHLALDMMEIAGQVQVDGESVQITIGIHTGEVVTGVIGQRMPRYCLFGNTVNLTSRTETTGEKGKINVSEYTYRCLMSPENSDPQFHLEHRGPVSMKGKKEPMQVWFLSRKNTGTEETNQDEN
Sequence of Haem-containing sGC (recombinant soluble guanylate cyclase) (P19686 whole entry partner): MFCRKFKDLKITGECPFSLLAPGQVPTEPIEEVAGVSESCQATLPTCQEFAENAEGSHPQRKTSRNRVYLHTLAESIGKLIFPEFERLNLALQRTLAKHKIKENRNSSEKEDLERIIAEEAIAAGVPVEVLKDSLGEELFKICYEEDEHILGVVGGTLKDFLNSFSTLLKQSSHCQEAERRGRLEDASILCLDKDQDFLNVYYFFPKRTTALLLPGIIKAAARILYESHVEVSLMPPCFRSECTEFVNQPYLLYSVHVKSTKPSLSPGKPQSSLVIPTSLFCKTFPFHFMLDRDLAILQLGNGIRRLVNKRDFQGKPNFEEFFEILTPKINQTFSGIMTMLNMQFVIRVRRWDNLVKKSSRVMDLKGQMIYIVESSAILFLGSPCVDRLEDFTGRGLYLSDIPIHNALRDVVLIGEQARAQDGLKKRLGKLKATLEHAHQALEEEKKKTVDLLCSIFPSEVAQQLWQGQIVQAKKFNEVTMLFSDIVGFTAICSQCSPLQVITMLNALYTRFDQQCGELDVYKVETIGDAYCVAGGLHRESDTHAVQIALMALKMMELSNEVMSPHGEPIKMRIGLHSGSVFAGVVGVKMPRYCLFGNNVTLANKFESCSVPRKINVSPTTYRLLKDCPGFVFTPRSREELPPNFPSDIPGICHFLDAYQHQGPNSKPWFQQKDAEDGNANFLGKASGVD
Sequence of Haem-free sGC (recombinant soluble guanylate cyclase) (P20595 whole entry): as the sequence (P20595 whole entry) above
Sequence of Haem-free sGC (recombinant soluble guanylate cyclase) (P19686 whole entry partner): as the sequence (P19686 whole entry partner) above
Sequence of sGC in the CHO reporter cell (P20595 whole entry): as the sequence (P20595 whole entry) above
Sequence of sGC in the CHO reporter cell (P19686 whole entry partner): as the sequence (P19686 whole entry partner) above
Sequence of soluble guanylate cyclase (sGC) (P20595 whole entry): as the sequence (P20595 whole entry) above
Sequence of soluble guanylate cyclase (sGC) (P19686 whole entry partner): as the sequence (P19686 whole entry partner) above

Stimulation (x-fold) of recombinant sGC, haem-free sGC, basal ([1]; 0.01 μM Example 22)	Stimulation (x-fold) of recombinant sGC, haem-free sGC, basal ([1]; 0.1 μM Example 22)	Stimulation (x-fold) of recombinant sGC, haem-free sGC, basal ([1]; 1.0 μM Example 22)	Stimulation (x-fold) of recombinant sGC, haem-free sGC, basal ([1]; 10 μM Example 22)	Stimulation (x-fold) of recombinant sGC, haem-containing sGC, +0.01 μM DEA/NO ([2]; 0.01 μM Example 22)	Stimulation (x-fold) of recombinant sGC, haem-containing sGC, +10 μM ODQ ([2]; 0.01 μM Example 22)	Stimulation (x-fold) of recombinant sGC, haem-containing sGC, basal ([2]; 0.01 μM Example 22)	Stimulation (x-fold) of recombinant sGC, haem-containing sGC, +0.01 μM DEA/NO ([2]; 0.1 μM Example 22)	Stimulation (x-fold) of recombinant sGC, haem-containing sGC, +10 μM ODQ ([2]; 0.1 μM Example 22)	Stimulation (x-fold) of recombinant sGC, haem-containing sGC, basal ([2]; 0.1 μM Example 22)	Stimulation (x-fold) of recombinant sGC, haem-containing sGC, +0.01 μM DEA/NO ([2]; 1.0 μM Example 22)	Stimulation (x-fold) of recombinant sGC, haem-containing sGC, +10 μM ODQ ([2]; 1.0 μM Example 22)	Stimulation (x-fold) of recombinant sGC, haem-containing sGC, basal ([2]; 1.0 μM Example 22)	Stimulation (x-fold) of recombinant sGC, haem-containing sGC, +0.01 μM DEA/NO ([2]; 10 μM Example 22)	Stimulation (x-fold) of recombinant sGC, haem-containing sGC, +10 μM ODQ ([2]; 10 μM Example 22)	Stimulation (x-fold) of recombinant sGC, haem-containing sGC, basal ([2]; 10 μM Example 22)	Effect of combination with the NO donor DEA/NO on sGC stimulation ([2]; haem-containing sGC, combination with DEA/NO)	MEC (minimum effective concentration), sGC-activating activity in the CHO reporter cell [3]	MEC (minimum effective concentration), activating action at the sGC enzyme [4]	Structure (SMILES)
1.2 ± 0.1 x-fold	1.6 ± 0.5 x-fold	4.9 ± 1.5 x-fold	14.2 ± 2.0 x-fold	4.4 ± 1.3 x-fold	5.7 ± 1.6 x-fold	1.6 ± 0.3 x-fold	3.4 ± 0.9 x-fold	6.1 ± 1.7 x-fold	1.6 ± 0.5 x-fold	4.4 ± 1.4 x-fold	8.4 ± 2.2 x-fold	2.4 ± 1.0 x-fold	7.8 ± 2.5 x-fold	18.3 ± 5.4 x-fold	4.9 ± 1.2 x-fold	no synergistic effect	1.8 nM	–	C[C@H]([C@H](C(=O)Nc1cc(C(CC(=O)O)C2CC2)ccc1Cl)c1ccc(Cl)cc1)C(F)(F)F (single isomer, unassigned; (+)) [Example 22]
–	–	–	–	–	–	–	–	–	–	–	–	–	–	–	–	–	10 nM	17 nM	CC(C(=O)O)C(c1ccc(Cl)c(NC(=O)C(c2ccc(Cl)cc2)[C@@H](C)C(F)(F)F)c1)C1CC1 (stereo partly drawn) [Example 30, 3-(4-Chloro-3-{[(3R)-2-(4-chlorophenyl)-4,4,4-trifluoro-3-methylbutanoyl]amino}phenyl)-3-cyclopropyl-2-methylpropanoic acid]

From US10259776B2, “Branched 3-phenylpropionic acid derivatives and their use” (BAYER INTELLECTUAL PROPERTY GMBH, priority 2011, dated 2019)
